Measurements as given in patent US20260315604A1, “OTUB1 Small-Molecule Binders and OTUB1-recruiting Deubiquitinase-targeting Chimeras (DUBTACs)” (ICAHN SCHOOL OF MEDICINE AT MOUNT SINAI, priority 2023, published 2026).

target: T1, Human OTUB1 wild-type (Homo sapiens, UniProt Q96FW1); experiment: Covalent modification of OTUB1 (adduct formation), mass spectrometry-based assay (OTUB1 covalent binders; selected CFTR or cGAS based bivalent compounds); format: binding; conditions: covalent adduct formation with OTUB1 protein
T1 construct: His tag (N); made in house; host or cells: E. coli BL21-CodonPlus (DE3)-RIPIL
T1 sequence (Q96FW1 whole entry): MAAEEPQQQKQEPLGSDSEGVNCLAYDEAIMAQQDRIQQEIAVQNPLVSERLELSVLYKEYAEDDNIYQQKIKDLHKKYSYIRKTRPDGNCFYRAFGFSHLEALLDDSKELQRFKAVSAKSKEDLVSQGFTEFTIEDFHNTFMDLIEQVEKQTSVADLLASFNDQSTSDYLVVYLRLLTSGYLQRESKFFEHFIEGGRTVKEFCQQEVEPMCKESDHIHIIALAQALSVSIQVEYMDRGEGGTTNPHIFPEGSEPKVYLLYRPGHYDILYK
Procedure, shortened: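 His-tagged human OTUB1 (10 μM), E. coli-expressed, incubated with compound (2500 μM) in 50 mM Tris-HCl pH 7.5, 150 mM NaCl, 0.5 mM TCEP for 1 h at room temperature. Adduct detected by intact-protein LC/ESI-TOF mass spectrometry after buffer exchange; duplicates.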

Row | SMILES | % of OTUB1 modified
1 | C=CC(=O)N1CCN(c2ccc(C)o2)C(=O)C1 [EN523, reference compound] | 40%
2 | CCCC(=O)N1CC2CC(C1)N2C(=O)C#CCN(C)C [XS209-166, 1-(3-butyryl-3,6-diazabicyclo[3.1.1]heptan-6-yl)-4-(dimethylamino)but-2-yn-1-one] | 90%
3 | CCCC(=O)N1CC2CC(C1)N2C(=O)C#CC(C)(C)N(C)C [XS209-168, 1-(3-butyryl-3,6-diazabicyclo[3.1.1]heptan-6-yl)-4-(dimethylamino)-4-methylpent-2-yn-1-one] | 15%
4 | CN(C)CC#CC(=O)N1CC(C)(C(=O)Nc2cc3ccccc3s2)C1 [XS209-175, N-(benzo[b]thiophen-2-yl)-1-(4-(dimethylamino)but-2-ynoyl)-3-methylazetidine-3-carboxamide] | 90%
5 | CN(C)C/C=C/C(=O)N1CC(O)(C(=O)Nc2cc3c(s2)CCCC3)C1 [XS209-176, (E)-1-(4-(dimethylamino)but-2-enoyl)-3-hydroxy-N-(4,5,6,7-tetrahydrobenzo[b]thiophen-2-yl)azetidine-3-carboxamide] | 55%
6 | CC(=O)N1CCN(c2ccc(C(=O)N3CC4CC(C3)N4C(=O)/C=C/CN(C)C)s2)CC1 [XS209-184, (E)-1-(3-(5-(4-acetylpiperazin-1-yl)thiophene-2-carbonyl)-3,6-diazabicyclo[3.1.1]heptan-6-yl)-4-(dimethylamino)but-2-en-1-one] | 80%
7 | CN(C)C/C=C/C(=O)N1C2CC1CN(C(=O)c1ccc(N3CCN(C)CC3)s1)C2 [XS209-185, (E)-4-(dimethylamino)-1-(3-(5-(4-methylpiperazin-1-yl)thiophene-2-carbonyl)-3,6-diazabicyclo[3.1.1]heptan-6-yl)but-2-en-1-one] | 85%
8 | CN(C)CC#CC(=O)N1CC(C(=O)Nc2cc3ccccc3s2)C1 [XS224-106, N-(benzo[b]thiophen-2-yl)-1-(4-(dimethylamino)but-2-ynoyl)azetidine-3-carboxamide] | 98%
9 | CN(C)C(C)(C)C#CC(=O)N1CC(C(=O)Nc2cc3ccccc3s2)C1 [XS224-107, N-(benzo[b]thiophen-2-yl)-1-(4-(dimethylamino)-4-methylpent-2-ynoyl)azetidine-3-carboxamide] | 60%
10 | CN(C)CC#CC(=O)N1CC(C(=O)Nc2cc3c(s2)CCCC3)C1 [XS224-108, 1-(4-(dimethylamino)but-2-ynoyl)-N-(4,5,6,7-tetrahydrobenzo[b]thiophen-2-yl)azetidine-3-carboxamide] | 100%
11 | CN(C)C(C)(C)C#CC(=O)N1CC(C(=O)Nc2cc3c(s2)CCCC3)C1 [XS224-109, 1-(4-(dimethylamino)-4-methylpent-2-ynoyl)-N-(4,5,6,7-tetrahydrobenzo[b]thiophen-2-yl)azetidine-3-carboxamide] | 75%
12 | Cc1ccc(NC(=O)C2CN(C(=O)C#CCN(C)C)C2)s1 [XS224-110, 1-(4-(dimethylamino)but-2-ynoyl)-N-(5-methylthiophen-2-yl)azetidine-3-carboxamide] | 100%
13 | Cc1ccc(NC(=O)C2CN(C(=O)C#CC(C)(C)N(C)C)C2)s1 [XS224-111, 1-(4-(dimethylamino)-4-methylpent-2-ynoyl)-N-(5-methylthiophen-2-yl)azetidine-3-carboxamide] | 53%
14 | CC(C)c1ccc(NC(=O)C2CN(C(=O)C#CCN(C)C)C2)s1 [XS224-116, 1-(4-(dimethylamino)but-2-ynoyl)-N-(5-isopropylthiophen-2-yl)azetidine-3-carboxamide] | 100%
15 | CC(C)c1ccc(NC(=O)C2CN(C(=O)C#CC(C)(C)N(C)C)C2)s1 [XS224-117, 1-(4-(dimethylamino)-4-methylpent-2-ynoyl)-N-(5-isopropylthiophen-2-yl)azetidine-3-carboxamide] | 60%

Continued, values first:

Row | % of OTUB1 modified | SMILES
16 | 10% | CN(C)CC#CC(=O)N1CC(C(=O)Nc2csc3ccccc23)C1 [XS224-118, N-(benzo[b]thiophen-3-yl)-1-(4-(dimethylamino)but-2-ynoyl)azetidine-3-carboxamide]
17 | 60% | CN(C)C(C)(C)C#CC(=O)N1CC(C(=O)Nc2csc3ccccc23)C1 [XS224-119, N-(benzo[b]thiophen-3-yl)-1-(4-(dimethylamino)-4-methylpent-2-ynoyl)azetidine-3-carboxamide]
18 | 7% | Cc1ccc(C(=O)N2CC(NC(=O)/C=C/CN(C)C)C2)s1 [XS224-143, (E)-4-(dimethylamino)-N-(1-(5-methylthiophene-2-carbonyl)azetidin-3-yl)but-2-enamide]
19 | 90% | Cc1ccc(C(=O)N2CC(NC(=O)C#CCN(C)C)C2)s1 [XS224-144, 4-(dimethylamino)-N-(1-(5-methylthiophene-2-carbonyl)azetidin-3-yl)but-2-ynamide]
20 | 60% | Cc1ccc(C(=O)N2CC(NC(=O)C#CC(C)(C)N(C)C)C2)s1 [XS224-145, 4-(dimethylamino)-4-methyl-N-(1-(5-methylthiophene-2-carbonyl)azetidin-3-yl)pent-2-ynamide]
21 | 90% | Cc1ccc(C(=O)NC2CC(NC(=O)C#CCN(C)C)C2)s1 (stereo not drawn) [XS224-148, N-(3-(4-(dimethylamino)but-2-ynamido)cyclobutyl)-5-methylthiophene-2-carboxamide]
22 | 15% | Cc1ccc(C(=O)NC2CC(NC(=O)C#CC(C)(C)N(C)C)C2)s1 (stereo not drawn) [XS224-149, N-(3-(4-(dimethylamino)-4-methylpent-2-ynamido)cyclobutyl)-5-methylthiophene-2-carboxamide]
23 | 73% | Cc1ccc(C(=O)NC2CN(C(=O)C#CCN(C)C)C2)s1 [XS224-150, N-(1-(4-(dimethylamino)but-2-ynoyl)azetidin-3-yl)-5-methylthiophene-2-carboxamide]
24 | 80% | CN(C)C/C=C/C(=O)N1CC(NC(=O)c2cc3ccccc3s2)C1 [XS224-154, (E)-N-(1-(4-(dimethylamino)but-2-enoyl)azetidin-3-yl)benzo[b]thiophene-2-carboxamide]
25 | 97% | CN(C)CC#CC(=O)N1CC(NC(=O)c2cc3ccccc3s2)C1 [XS224-155, A-(1-(4-(dimethylamino)but-2-ynoyl)azetidin-3-yl)benzo[b]thiophene-2-carboxamide]
26 | 85% | CN(C)C(C)(C)C#CC(=O)N1CC(NC(=O)c2cc3ccccc3s2)C1 [XS224-156, N-(1-(4-(dimethylamino)-4-methylpent-2-ynoyl)azetidin-3-yl)benzo[b]thiophene-2-carboxamide]
27 | 49% | CN(C)C/C=C/C(=O)N1CC(NC(=O)c2cc3c(s2)CCCC3)C1 [XS224-157, (E)-N-(1-(4-(dimethylamino)but-2-enoyl)azetidin-3-yl)-4,5,6,7-tetrahydrobenzo[b]thiophene-2-carboxamide]
28 | 92% | CN(C)CC#CC(=O)N1CC(NC(=O)c2cc3c(s2)CCCC3)C1 [XS224-158, N-(1-(4-(dimethylamino)but-2-ynoyl)azetidin-3-yl)-4,5,6,7-tetrahydrobenzo[b]thiophene-2-carboxamide]
29 | 92% | CN(C)C(C)(C)C#CC(=O)N1CC(NC(=O)c2cc3c(s2)CCCC3)C1 [XS224-159, N-(1-(4-(dimethylamino)-4-methylpent-2-ynoyl)azetidin-3-yl)-4,5,6,7-tetrahydrobenzo[b]thiophene-2-carboxamide]

target: T2, cGAS and OTUB1 (Homo sapiens, UniProt Q8N884+Q96FW1); experiment: cGAS co-elution with OTUB1; format: binding; conditions: in the presence of compound; FIG. 6F
T2 construct: other panels use HeLa cells; recombinant His-OTUB1 from E. coli described
T2 sequence (Q8N884 whole entry): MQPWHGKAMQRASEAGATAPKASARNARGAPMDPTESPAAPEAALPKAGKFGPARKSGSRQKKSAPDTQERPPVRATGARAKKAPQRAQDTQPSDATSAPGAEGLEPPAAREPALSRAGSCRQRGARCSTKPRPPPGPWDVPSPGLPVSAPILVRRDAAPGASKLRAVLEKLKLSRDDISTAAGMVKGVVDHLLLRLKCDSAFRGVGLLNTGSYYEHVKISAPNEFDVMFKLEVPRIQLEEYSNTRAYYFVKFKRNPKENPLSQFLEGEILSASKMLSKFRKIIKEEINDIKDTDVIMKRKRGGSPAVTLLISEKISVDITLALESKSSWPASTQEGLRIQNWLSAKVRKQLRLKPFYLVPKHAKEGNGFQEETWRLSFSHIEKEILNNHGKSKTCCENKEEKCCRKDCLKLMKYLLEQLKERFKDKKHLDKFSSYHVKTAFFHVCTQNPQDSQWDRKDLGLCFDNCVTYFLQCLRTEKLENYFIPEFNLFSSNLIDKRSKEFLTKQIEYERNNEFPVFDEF
T2 sequence (Q96FW1 whole entry): as the sequence (Q96FW1 whole entry) above

Row | SMILES | co-elution of cGAS with OTUB1
30 | CN(C)C/C=C/C(=O)N1CCN(c2ccc(CCC(=O)NCCCCCCCCCNC(=O)Cn3ccc(-c4cc(Cl)c(Cl)c5[nH]c6c(c45)CN(C(=O)CO)CC6)n3)s2)C(=O)C1 [MS7829] | cGAS co-elutes with OTUB1
31 | CN(C)C/C=C/C(=O)N1CCN(c2ccc(CCNC(=O)CCCCCCCCCC(=O)NCCn3ccc(-c4cc(Cl)c(Cl)c5[nH]c6c(c45)CN(C(=O)CO)CC6)n3)s2)C(=O)C1 [mS8588, (E)-N1-(2-(3-(6,7-dichloro-2-(2-hydroxyacetyl)-2,3,4,5-tetrahydro-1H-pyrido[4,3-b]indol-9-yl)-1H-pyrazol-1-yl)ethyl)-N11-(2-(5-(4-(4-(dimethylamino)but-2-enoyl)-2-oxopiperazin-1-yl)thiophen-2-yl)ethyl)undecanediamide] | cGAS co-elutes with OTUB1

test system: OTUB1; experiment: not given; conditions: background statement; cited from earlier work

Row | SMILES | binding affinity to OTUB1
32 | C=CC(=O)N1CCN(c2ccc(C)o2)C(=O)C1 [EN523, reference compound] | low binding affinity to OTUB1

test system: OTUB1; experiment: not given; conditions: background statement; cited from earlier work; remark: another data set of the same source

Row | SMILES | inhibition of the enzymatic activity of OTUB1
33 | Cc1ccc(S(=O)(=O)Nc2cc(C(F)(F)F)ccc2C(=O)Nc2nc(-c3ccccc3)cs2)cc1 [ML364] | inhibit the enzymatic activity of OTUB1
